The results in this text go back to patent publication US11179383B2 (Gilead Sciences, Inc., priority 2018, dated 2021).

In this assay the target is T1, α4β7 integrin (Homo sapiens, UniProt P13612+P26010).
T1 construct: monitoring the capture of α4β7 integrin expressing cells on a recombinant MadCAM-1 extracellular domain-coated plate; endogenous in cells; host or cells: RPMI8866 cells
T1 sequence (P13612 34-1032): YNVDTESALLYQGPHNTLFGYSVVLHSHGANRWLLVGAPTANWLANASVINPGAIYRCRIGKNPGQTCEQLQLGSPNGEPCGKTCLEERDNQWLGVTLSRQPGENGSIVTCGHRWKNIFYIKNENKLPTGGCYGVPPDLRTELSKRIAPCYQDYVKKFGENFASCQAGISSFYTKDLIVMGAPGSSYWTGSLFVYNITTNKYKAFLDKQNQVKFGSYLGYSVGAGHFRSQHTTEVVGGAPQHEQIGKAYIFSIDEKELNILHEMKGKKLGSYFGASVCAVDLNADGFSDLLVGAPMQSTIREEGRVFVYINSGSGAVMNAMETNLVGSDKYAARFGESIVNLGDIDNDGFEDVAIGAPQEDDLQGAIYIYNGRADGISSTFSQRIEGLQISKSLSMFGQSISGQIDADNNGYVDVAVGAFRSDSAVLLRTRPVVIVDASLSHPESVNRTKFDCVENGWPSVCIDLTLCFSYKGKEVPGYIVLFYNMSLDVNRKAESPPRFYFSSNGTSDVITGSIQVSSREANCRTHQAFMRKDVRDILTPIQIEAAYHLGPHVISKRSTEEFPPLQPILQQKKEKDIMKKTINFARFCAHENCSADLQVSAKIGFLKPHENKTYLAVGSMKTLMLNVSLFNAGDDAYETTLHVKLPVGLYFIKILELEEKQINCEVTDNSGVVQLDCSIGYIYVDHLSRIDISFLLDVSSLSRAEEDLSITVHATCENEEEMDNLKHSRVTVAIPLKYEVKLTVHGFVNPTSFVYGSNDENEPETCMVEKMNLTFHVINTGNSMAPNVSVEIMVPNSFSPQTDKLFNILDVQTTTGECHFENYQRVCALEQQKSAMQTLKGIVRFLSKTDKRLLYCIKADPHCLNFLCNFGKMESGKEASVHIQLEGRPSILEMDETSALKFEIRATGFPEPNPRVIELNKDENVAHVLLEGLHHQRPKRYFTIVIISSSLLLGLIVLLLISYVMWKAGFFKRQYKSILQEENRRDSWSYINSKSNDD
T1 sequence (P26010 20-798): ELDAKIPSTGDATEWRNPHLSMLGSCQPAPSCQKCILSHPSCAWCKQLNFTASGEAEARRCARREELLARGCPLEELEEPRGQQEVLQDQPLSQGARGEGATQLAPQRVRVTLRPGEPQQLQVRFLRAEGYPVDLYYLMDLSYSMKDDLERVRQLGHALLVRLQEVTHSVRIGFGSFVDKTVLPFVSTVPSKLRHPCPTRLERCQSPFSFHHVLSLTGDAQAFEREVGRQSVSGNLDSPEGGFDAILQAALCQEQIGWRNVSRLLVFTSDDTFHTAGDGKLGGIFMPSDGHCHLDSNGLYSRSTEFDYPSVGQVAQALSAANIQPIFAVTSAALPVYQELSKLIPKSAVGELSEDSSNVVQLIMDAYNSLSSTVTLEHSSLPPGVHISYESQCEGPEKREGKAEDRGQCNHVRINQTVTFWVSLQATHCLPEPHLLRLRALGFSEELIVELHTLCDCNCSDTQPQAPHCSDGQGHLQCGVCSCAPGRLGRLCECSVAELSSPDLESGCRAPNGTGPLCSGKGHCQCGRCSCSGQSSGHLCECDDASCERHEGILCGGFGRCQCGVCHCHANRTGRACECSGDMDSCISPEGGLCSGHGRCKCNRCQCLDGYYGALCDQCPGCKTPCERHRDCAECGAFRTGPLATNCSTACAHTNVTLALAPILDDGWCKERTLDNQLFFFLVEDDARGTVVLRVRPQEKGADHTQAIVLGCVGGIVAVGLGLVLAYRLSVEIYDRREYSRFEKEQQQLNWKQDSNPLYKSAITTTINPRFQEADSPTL
The assay can be described thus: α4β7 Integrin Cell Capture Assay. The following applies: capture of α4β7 integrin expressing RPMI8866 cells on recombinant MadCAM-1 extracellular domain-coated plate; DMEM+0.5% FBS+0.5 mM MnCl2; read-out: EC50 α4β7. In kind it is cell-based. An outline of the steps:
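RPMI8866 cells in DMEM + 0.5% FBS + 0.5 mM MnCl2 preincubated with compound 1 h at 37 °C, then allowed to bind 30 min at 37 °C to plates coated with MAdCAM-1 extracellular domain (1.0 μg/mL). Cells fixed with glutaraldehyde, Hoechst-stained, imaged and bound cells counted; EC50 from cell count versus concentration.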

Usually EC50 stands for the concentration needed to bring the measured effect to its halfway point. As for `CCn1cccc(-c2ccc(C[C@H](NC(=O)c3c(Cl)cccc3Cl)C(=O)O)c3ncccc23)c1=O` [Example 22, (S)-2-(2,6-dichlorobenzamido)-3-(5-(1-ethyl-2-oxo-1,2-dihydropyridin-3-yl)quinolin-8-yl)propanoic acid], the 50% effective concentration (EC50) was 123 nM.

For `Cn1cc(C(F)(F)F)cc(-c2ccc(C[C@H](NC(=O)c3c(Cl)cccc3Cl)C(=O)O)c3ncccc23)c1=O` [Example 23, (S)-2-(2,6-dichlorobenzamido)-3-(5-(1-methyl-2-oxo-5-(trifluoromethyl)-1,2-dihydropyridin-3-yl)quinolin-8-yl)propanoic acid], the EC50 was determined as 18.5 nM.

Consider `O=C(N[C@@H](Cc1ccc(-c2cccc3c2OCCC3)c2cccnc12)C(=O)O)c1c(Cl)cccc1Cl` [Example 24, (S)-3-(5-(chroman-8-yl)quinolin-8-yl)-2-(2,6-dichlorobenzamido)propanoic acid], for which the EC50 is 49.5 nM.

Regarding `O=C(N[C@@H](Cc1ccc(-c2ncc3ccccc3c2Br)c2cccnc12)C(=O)O)c1c(Cl)cccc1Cl` [Example 25, (S)-3-(5-(4-bromoisoquinolin-3-yl)quinolin-8-yl)-2-(2,6-dichlorobenzamido)propanoic acid], the half-maximal effective concentration (EC50) stood at 20 nM.

Take `Cc1nn(C)nc1-c1ccc(C[C@H](NC(=O)c2c(Cl)cccc2Cl)C(=O)O)c2ncccc12` [Example 26, (S)-2-(2,6-dichlorobenzamido)-3-(5-(2,5-dimethyl-2H-1,2,3-triazol-4-yl)quinolin-8-yl)propanoic acid]: the concentration giving a half-maximal response (EC50) is 290 nM.

`Cn1ccnc(-c2ccc(C[C@H](NC(=O)c3c(Cl)cccc3Cl)C(=O)O)c3ncccc23)c1=O` [Example 27, (S)-2-(2,6-dichlorobenzamido)-3-(5-(4-methyl-3-oxo-3,4-dihydropyrazin-2-yl)quinolin-8-yl)propanoic acid]: the concentration for a half-maximal effect (EC50) was found to be 57.7 nM.

As to `COc1ncc(F)cc1-c1ccc(C[C@H](NC(=O)c2c(Cl)cccc2Cl)C(=O)O)c2ncccc12` [Example 28, (S)-2-(2,6-dichlorobenzamido)-3-(5-(5-fluoro-2-methoxypyridin-3-yl)quinolin-8-yl)propanoic acid], the EC50 stood at 194 nM.

For the compound `Cn1cc(Cl)cc(-c2ccc(C[C@H](NC(=O)c3c(Cl)cccc3Cl)C(=O)O)c3ncccc23)c1=O` [Example 29, (S)-3-(5-(5-chloro-1-methyl-2-oxo-1,2-dihydropyridin-3-yl)quinolin-8-yl)-2-(2,6-dichlorobenzamido)propanoic acid], the concentration giving a half-maximal response (EC50) was 16.7 nM.

As for `Cc1ccn(C)c(=O)c1-c1ccc(CC(NC(=O)c2c(Cl)cccc2Cl)C(=O)O)c2ncccc12` (centres unmarked) [Example 30, 2-(2,6-Dichlorobenzamido)-3-(5-(1,4-dimethyl-2-oxo-1,2-dihydropyridin-3-yl)quinolin-8-yl)propanoic acid], the concentration for a half-maximal effect (EC50) was 46.4 nM.

Consider `Cc1cc(-c2ccc(C[C@H](NC(=O)c3c(Cl)cccc3Cl)C(=O)O)c3ncccc23)c(=O)n(C)c1` [Example 31, (S)-2-(2,6-Dichlorobenzamido)-3-(5-(1,5-dimethyl-2-oxo-1,2-dihydropyridin-3-yl)quinolin-8-yl)propanoic acid], for which the half-maximal effective concentration (EC50) stood at 23.2 nM.

Consider `COc1ccn(C)c(=O)c1-c1ccc(CC(NC(=O)c2c(Cl)cccc2Cl)C(=O)O)c2ncccc12` (centres unmarked) [Example 32, 2-(2,6-Dichlorobenzamido)-3-(5-(4-methoxy-1-methyl-2-oxo-1,2-dihydropyridin-3-yl)quinolin-8-yl)propanoic acid], for which the concentration for a half-maximal effect (EC50) was 6 nM.

`Cc1ccc(-c2ccc(C[C@H](NC(=O)c3c(Cl)cccc3Cl)C(=O)O)c3ncccc23)c(=O)n1C` [Example 33, (S)-2-(2,6-dichlorobenzamido)-3-(5-(1,6-dimethyl-2-oxo-1,2-dihydropyridin-3-yl)quinolin-8-yl)propanoic acid]: the EC50 was 12.2 nM.

As for `Cc1c(-c2ccc(C[C@H](NC(=O)c3c(Cl)cccc3Cl)C(=O)O)c3ncccc23)c(=O)n(C)c2ccccc12` [Example 34, (S)-2-(2,6-dichlorobenzamido)-3-(1,4-dimethyl-2-oxo-1,2-dihydro-[3,5′-biquinolin]-8′-yl)propanoic acid], the 50% effective concentration (EC50) turned out to be 4 nM.

Turning to `COc1cc(F)cc(C(F)(F)F)c1-c1ccc(C[C@H](NC(=O)c2c(Cl)cccc2Cl)C(=O)O)c2ncccc12` [Example 35, (2S)-2-(2,6-dichlorobenzamido)-3-(5-(4-fluoro-2-methoxy-6-(trifluoromethyl)phenyl)quinolin-8-yl)propanoic acid], the EC50 turned out to be 53.5 nM.

Turning to `COc1cc(F)cc(Cl)c1-c1ccc(C[C@H](NC(=O)c2c(Cl)cccc2Cl)C(=O)O)c2ncccc12` [Example 36, (2S)-3-(5-(2-chloro-4-fluoro-6-methoxyphenyl)quinolin-8-yl)-2-(2,6-dichlorobenzamido)propanoic acid], the EC50 stood at 115 nM.

Consider `COc1cccc(Cl)c1-c1ccc(C[C@H](NC(=O)c2c(Cl)cccc2Cl)C(=O)O)c2ncccc12` [Example 37, (2S)-3-(5-(2-chloro-6-methoxyphenyl)quinolin-8-yl)-2-(2,6-dichlorobenzamido) propanoic acid], for which the EC50 was 65.6 nM.

Take `O=C(N[C@@H](Cc1ccc(-c2cccc[n+]2[O-])c2cccnc12)C(=O)O)c1c(Cl)cccc1Cl` [Example 38]: the 50% effective concentration (EC50) was found to be 212 nM.

Regarding `Cn1cccc(-c2ccc(C[C@H](NC(=O)c3c(Cl)cccc3Cl)C(=O)O)c3ncccc23)c1=O` [Example 39, (S)-2-(2,6-dichlorobenzamido)-3-(5-(1-methyl-2-oxo-1,2-dihydropyridin-3-yl)quinolin-8-yl)propanoic acid], the EC50 was 74 nM.

Consider `Cc1c(-c2ccc(C[C@H](NC(=O)c3c(Cl)cccc3Cl)C(=O)O)c3ncccc23)ncc2ccccc12` [Example 40, (S)-2-(2,6-dichlorobenzamido)-3-(5-(4-methylisoquinolin-3-yl)quinolin-8-yl)propanoic acid], for which the concentration for a half-maximal effect (EC50) is 32.7 nM.

As to `Cc1c(-c2ccc(C[C@H](NC(=O)c3c(Cl)cccc3Cl)C(=O)O)c3ncccc23)c(=O)n(C)c2cc(F)ccc12` [Example 41, (S)-2-(2,6-dichlorobenzamido)-3-(7-fluoro-1,4-dimethyl-2-oxo-1,2-dihydro-[3,5′-biquinolin]-8′-yl)propanoic acid], the 50% effective concentration (EC50) amounted to 7.5 nM.

On to `COc1c(F)cc(F)cc1-c1ccc(C[C@H](NC(=O)c2c(Cl)cccc2Cl)C(=O)O)c2ncccc12` [Example 42, (S)-2-(2,6-dichlorobenzamido)-3-(5-(3,5-difluoro-2-methoxyphenyl)quinolin-8-yl)propanoic acid], for which the EC50 turned out to be 152 nM.

As to `COc1c(-c2ccc(C[C@H](NC(=O)c3c(Cl)cccc3Cl)C(=O)O)c3ncccc23)ccc(F)c1F` [Example 43, (S)-2-(2,6-dichlorobenzamido)-3-(5-(3,4-difluoro-2-methoxyphenyl)quinolin-8-yl)propanoic acid], the EC50 worked out at 161 nM.

Consider `O=C(N[C@@H](Cc1ccc(-c2c(Cl)cccc2C(F)(F)F)c2cccnc12)C(=O)O)c1c(Cl)cccc1Cl` [Example 44, (2S)-3-(5-(2-chloro-6-(trifluoromethyl)phenyl)quinolin-8-yl)-2-(2,6-dichlorobenzamido)propanoic acid], for which the EC50 is 538 nM.
